Patent US20230257347A1 (priority 2020, published 2023)
Structures can show the parent of a compound that is named as a salt.

Experiments:
KvLQT1/minK = molecular target: T1, KvLQT1/minK (Homo sapiens, UniProt P15382+P51787); test: Ion channel assay, KvLQT1/minK; format: cell-based
T1 construct: expressed in transfected cells

[1] = molecular target: Histamine Receptor H1 (HRH1) (Homo sapiens, UniProt P35367); test: cell-based
[2] = molecular target: Cannabinoid Receptor 1 (CNR1) (Homo sapiens, UniProt P21554); test: cAMP assay, CNR1; format: cell-based
Sequence of Cannabinoid Receptor 1 (CNR1) (P21554 whole entry): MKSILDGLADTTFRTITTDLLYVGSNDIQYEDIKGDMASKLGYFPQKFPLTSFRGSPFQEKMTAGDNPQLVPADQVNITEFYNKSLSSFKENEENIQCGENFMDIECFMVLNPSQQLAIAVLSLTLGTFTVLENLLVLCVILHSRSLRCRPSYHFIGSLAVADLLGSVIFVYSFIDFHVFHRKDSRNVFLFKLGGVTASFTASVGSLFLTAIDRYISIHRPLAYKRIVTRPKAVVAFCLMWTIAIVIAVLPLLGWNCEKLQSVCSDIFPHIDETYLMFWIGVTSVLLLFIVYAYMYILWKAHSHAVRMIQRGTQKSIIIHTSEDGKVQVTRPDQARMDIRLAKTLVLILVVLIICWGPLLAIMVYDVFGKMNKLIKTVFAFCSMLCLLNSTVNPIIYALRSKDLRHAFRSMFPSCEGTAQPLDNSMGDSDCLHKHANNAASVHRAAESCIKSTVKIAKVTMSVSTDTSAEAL

[3] = molecular target: Opioid Receptor Kappa 1 (OPRK1) (Homo sapiens, UniProt P41145); test: cAMP assay, OPRK1; format: cell-based
Sequence of Opioid Receptor Kappa 1 (OPRK1) (P41145 whole entry): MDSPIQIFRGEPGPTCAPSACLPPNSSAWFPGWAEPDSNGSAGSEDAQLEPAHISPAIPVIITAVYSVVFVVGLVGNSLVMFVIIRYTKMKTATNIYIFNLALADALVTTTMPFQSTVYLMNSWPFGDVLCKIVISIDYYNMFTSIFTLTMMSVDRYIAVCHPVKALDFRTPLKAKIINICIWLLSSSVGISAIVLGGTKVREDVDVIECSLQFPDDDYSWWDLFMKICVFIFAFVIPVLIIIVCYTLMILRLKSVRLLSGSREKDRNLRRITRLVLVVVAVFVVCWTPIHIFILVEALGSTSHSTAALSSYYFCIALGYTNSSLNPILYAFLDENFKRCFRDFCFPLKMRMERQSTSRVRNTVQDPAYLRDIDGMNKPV

[4] = molecular target: T2, Nuclear Hormone Glucocorticoid Receptor (GR) (Homo sapiens, UniProt P04150); test: NHR Protein Interaction assay, GR; format: cell-based
T2 sequence (P04150 1-777): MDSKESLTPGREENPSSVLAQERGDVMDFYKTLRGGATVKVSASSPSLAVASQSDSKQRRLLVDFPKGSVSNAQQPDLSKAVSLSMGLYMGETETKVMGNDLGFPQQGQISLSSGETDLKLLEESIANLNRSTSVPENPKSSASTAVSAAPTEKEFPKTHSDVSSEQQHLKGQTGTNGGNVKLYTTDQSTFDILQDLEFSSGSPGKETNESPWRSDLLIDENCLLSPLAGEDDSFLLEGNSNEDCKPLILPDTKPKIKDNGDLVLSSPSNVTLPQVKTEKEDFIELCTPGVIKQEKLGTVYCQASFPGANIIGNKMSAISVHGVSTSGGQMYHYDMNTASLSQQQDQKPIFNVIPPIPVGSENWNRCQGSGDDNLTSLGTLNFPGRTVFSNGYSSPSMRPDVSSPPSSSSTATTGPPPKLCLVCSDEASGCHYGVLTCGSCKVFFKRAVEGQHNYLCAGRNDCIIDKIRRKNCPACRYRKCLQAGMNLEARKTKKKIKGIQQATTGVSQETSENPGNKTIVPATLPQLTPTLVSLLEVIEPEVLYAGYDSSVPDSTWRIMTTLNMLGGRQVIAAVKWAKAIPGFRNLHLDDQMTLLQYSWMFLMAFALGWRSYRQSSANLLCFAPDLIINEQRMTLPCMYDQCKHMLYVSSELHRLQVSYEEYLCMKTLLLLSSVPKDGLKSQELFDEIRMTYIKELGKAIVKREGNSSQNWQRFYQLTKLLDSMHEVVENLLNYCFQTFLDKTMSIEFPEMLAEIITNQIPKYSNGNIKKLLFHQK

[5] = molecular target: Muscarinic acetylcholine Receptor M3 (CHRM3) (Homo sapiens, UniProt P20309); test: cell-based
[6] = molecular target: Cannabinoid Receptor 2 (CNR2) (Homo sapiens, UniProt P34972); test: cAMP assay, CNR2; format: cell-based
Sequence of Cannabinoid Receptor 2 (CNR2) (P34972 whole entry): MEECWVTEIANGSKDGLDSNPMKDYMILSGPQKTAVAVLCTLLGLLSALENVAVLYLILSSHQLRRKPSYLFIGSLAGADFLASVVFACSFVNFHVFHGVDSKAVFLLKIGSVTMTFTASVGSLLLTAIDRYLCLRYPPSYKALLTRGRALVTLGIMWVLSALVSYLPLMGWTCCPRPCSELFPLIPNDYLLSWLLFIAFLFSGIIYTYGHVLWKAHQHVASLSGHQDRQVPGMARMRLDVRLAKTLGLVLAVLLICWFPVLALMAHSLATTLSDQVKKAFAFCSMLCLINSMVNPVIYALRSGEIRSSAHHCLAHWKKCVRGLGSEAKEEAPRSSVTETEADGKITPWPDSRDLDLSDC

[7] = molecular target: T3, Norepinephrine transporter (NET) (Homo sapiens, UniProt P23975); test: Monoamine transporter uptake assay (fluorescent substrate), NET; format: cell-based
T3 construct: expressed in transfected cells
T3 sequence (P23975 whole entry): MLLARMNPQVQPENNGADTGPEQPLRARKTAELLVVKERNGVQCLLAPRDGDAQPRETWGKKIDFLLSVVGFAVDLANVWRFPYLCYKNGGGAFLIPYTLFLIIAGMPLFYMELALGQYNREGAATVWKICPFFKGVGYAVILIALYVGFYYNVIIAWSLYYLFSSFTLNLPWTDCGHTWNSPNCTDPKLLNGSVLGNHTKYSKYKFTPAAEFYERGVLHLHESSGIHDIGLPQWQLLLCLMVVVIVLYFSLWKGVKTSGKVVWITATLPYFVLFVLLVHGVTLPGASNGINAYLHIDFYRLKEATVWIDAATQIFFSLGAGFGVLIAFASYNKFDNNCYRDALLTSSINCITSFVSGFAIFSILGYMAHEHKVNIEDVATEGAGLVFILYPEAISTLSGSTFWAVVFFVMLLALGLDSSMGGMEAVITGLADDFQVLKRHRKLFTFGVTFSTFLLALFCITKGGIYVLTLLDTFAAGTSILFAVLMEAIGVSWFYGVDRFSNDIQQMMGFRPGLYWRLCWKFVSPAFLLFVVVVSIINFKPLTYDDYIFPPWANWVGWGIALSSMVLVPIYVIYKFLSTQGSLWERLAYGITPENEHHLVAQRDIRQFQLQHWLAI

[8] = molecular target: Arginine Vasopressin Receptor 1A (AVPR1A) (Homo sapiens, UniProt P37288); test: Calcium flux assay, AVPR1A; format: cell-based
Sequence of Arginine Vasopressin Receptor 1A (AVPR1A) (P37288 whole entry): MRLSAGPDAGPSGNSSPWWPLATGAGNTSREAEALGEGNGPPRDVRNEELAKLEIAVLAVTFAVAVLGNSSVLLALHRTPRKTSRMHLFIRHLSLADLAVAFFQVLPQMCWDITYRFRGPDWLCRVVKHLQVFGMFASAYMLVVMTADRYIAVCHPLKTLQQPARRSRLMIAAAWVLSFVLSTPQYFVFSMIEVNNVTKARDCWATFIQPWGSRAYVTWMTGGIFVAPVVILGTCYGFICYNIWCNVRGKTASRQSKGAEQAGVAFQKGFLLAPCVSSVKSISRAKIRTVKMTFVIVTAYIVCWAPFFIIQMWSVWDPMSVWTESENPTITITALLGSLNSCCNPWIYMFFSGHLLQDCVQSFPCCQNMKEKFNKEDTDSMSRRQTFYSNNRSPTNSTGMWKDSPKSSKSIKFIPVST

[9] = molecular target: 5-Hydroxytryptamine (Serotonin) Receptor 2B (5-HT2B) (Homo sapiens, UniProt P41595); test: Calcium flux secondary messenger assay, 5-HT2B; format: cell-based
[10] = molecular target: T4, Vascular endothelial growth factor receptor 2 (KDR tyrosine kinase) (VEGFR2) (Homo sapiens, UniProt P35968); test: biochemical; format: binding
T4 construct: made in house; host or cells: E. coli BL21-derived host (T7 phage) or HEK-293
T4 sequence (P35968 20-1356): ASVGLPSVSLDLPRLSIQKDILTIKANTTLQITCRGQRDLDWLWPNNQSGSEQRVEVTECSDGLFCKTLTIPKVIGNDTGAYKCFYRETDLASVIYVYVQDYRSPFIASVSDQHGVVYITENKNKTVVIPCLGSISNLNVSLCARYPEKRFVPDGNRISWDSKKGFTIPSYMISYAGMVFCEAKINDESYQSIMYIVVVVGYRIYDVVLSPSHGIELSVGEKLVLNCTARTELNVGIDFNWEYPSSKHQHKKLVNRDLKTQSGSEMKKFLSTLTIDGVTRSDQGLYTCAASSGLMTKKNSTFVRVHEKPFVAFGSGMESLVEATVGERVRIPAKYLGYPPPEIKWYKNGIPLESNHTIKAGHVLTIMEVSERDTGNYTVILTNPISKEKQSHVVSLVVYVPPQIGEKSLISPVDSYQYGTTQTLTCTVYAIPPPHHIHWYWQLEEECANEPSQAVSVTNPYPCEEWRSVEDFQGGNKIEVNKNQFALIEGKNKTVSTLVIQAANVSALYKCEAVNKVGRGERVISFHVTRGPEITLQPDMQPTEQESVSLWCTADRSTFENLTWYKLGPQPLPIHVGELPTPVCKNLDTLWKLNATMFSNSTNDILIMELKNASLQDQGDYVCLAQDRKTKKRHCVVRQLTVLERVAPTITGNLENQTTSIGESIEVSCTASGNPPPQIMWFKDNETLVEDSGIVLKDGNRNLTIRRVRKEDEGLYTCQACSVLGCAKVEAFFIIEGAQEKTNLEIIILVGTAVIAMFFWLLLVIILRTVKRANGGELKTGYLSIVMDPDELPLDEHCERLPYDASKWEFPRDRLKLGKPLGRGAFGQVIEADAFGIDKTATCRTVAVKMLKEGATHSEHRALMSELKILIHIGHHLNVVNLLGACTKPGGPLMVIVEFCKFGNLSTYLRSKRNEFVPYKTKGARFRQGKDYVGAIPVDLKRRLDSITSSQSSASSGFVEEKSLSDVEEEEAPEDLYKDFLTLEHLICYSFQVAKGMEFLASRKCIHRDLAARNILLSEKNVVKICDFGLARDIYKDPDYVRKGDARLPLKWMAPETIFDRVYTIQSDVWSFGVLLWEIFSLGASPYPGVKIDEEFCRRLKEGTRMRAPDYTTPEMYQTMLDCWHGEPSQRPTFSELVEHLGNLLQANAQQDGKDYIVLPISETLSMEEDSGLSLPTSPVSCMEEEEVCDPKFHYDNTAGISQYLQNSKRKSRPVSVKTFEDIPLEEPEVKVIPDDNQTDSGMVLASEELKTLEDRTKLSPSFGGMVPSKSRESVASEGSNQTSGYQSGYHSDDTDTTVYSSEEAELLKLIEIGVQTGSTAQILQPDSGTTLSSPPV

[11] = molecular target: T5, Serotonin transporter (SERT) (Homo sapiens, UniProt P31645); test: cell-based
T5 construct: expressed in transfected cells
T5 sequence (P31645 whole entry): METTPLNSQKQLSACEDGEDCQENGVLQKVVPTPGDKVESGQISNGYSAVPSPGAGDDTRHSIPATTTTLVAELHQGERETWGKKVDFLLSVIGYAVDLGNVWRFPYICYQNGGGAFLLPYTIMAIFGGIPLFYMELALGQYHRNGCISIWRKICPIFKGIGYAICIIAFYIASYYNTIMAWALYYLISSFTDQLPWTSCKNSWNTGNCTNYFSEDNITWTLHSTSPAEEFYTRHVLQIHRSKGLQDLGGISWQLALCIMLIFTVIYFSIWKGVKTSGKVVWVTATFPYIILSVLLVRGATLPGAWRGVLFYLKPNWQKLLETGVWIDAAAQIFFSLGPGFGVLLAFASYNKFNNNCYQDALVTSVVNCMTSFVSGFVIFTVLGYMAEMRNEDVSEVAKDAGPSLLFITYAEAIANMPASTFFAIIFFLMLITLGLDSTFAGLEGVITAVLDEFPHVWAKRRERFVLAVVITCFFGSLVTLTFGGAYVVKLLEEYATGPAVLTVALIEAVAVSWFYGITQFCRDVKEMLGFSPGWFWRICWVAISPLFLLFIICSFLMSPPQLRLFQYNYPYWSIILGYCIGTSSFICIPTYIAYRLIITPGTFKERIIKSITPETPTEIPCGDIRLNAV

[12] = molecular target: Adrenergic Receptor β1 (ADRB1) (Homo sapiens, UniProt P08588); test: cAMP assay, ADRB1; format: cell-based
[13] = molecular target: T6, Adrenergic Receptor α1A (ADRA1A) (Homo sapiens, UniProt P35348); test: Calcium flux assay, ADRA1A; format: cell-based
T6 sequence (P35348 1-466): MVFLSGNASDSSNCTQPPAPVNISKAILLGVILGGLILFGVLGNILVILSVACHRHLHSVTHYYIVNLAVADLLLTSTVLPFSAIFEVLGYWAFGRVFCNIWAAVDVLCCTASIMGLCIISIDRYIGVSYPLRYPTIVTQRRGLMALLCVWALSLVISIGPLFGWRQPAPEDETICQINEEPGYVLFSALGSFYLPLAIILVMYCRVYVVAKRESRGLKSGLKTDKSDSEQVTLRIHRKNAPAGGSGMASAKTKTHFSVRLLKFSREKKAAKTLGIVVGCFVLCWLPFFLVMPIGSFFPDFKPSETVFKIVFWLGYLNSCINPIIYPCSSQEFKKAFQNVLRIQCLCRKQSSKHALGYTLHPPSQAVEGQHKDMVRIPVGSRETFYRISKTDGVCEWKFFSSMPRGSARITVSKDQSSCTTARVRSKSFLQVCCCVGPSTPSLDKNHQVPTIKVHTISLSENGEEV

[14] = molecular target: T7, Muscarinic acetylcholine Receptor M2 (CHRM2) (Homo sapiens, UniProt P08172); test: cAMP assay, CHRM2; format: cell-based
T7 sequence (P08172 1-466): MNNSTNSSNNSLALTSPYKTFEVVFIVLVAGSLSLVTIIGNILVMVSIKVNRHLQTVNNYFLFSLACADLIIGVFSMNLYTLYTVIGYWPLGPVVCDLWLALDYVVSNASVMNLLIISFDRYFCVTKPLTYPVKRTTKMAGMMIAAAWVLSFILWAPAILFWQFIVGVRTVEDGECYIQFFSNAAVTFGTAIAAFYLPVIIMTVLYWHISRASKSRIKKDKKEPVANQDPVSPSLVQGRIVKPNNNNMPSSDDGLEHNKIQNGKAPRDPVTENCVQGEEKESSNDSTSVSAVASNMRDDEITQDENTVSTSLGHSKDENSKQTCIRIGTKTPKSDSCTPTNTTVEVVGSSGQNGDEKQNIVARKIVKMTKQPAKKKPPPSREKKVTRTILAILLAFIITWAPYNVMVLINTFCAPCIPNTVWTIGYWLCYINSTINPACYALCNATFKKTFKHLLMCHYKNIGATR

T1 sequence (P51787 whole entry): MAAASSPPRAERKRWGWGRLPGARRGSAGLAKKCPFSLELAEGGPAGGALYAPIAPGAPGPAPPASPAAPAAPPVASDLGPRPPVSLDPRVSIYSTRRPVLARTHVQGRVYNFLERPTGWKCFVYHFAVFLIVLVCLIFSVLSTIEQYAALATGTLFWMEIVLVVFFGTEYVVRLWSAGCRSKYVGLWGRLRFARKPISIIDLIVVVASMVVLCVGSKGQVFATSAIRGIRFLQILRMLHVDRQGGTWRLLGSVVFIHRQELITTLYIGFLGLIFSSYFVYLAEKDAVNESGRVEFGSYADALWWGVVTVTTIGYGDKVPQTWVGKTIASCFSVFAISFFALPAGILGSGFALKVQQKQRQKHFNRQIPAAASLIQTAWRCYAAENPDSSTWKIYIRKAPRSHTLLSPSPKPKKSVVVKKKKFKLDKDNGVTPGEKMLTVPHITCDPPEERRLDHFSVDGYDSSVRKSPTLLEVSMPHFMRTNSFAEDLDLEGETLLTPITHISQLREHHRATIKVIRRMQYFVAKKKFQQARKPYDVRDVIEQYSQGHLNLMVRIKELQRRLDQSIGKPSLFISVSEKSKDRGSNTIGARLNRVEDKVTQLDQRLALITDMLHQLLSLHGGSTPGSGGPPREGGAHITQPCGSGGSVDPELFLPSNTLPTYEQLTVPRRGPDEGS

SMILES	EC50 (KvLQT1/minK)	IC50 (KvLQT1/minK)	EC50 [1]	IC50 [1]	EC50 [2]	IC50 [2]	EC50 [3]	IC50 [3]	EC50 [4]	IC50 [4]	EC50 [5]	IC50 [5]	EC50 [6]	IC50 [6]	IC50 [7]	EC50 [8]	IC50 [8]	EC50 [9]	IC50 [9]	IC50 [10]	further results
CNC(C)C(=O)c1c[nH]c2ccc(Br)cc12 (stereo not drawn) [BK-5Br-NM-AMT, 1-(5-bromo-1H-indol-3-yl)-2-(methylamino) propan-1-one hydrochloride]	> 10 µM	> 10 µM	> 10 µM	> 10 µM	> 10 µM	> 10 µM	> 10 µM	> 10 µM	> 10 µM	> 10 µM	> 10 µM	> 10 µM	> 10 µM	> 10 µM	> 10 µM	> 10 µM	> 10 µM	> 10 µM	0.0447 µM	> 10 µM	IC50 [11]: > 10 µM; EC50 [12]: > 10 µM; IC50 [12]: > 10 µM; EC50 [13]: 8.24 µM; IC50 [13]: > 10 µM; EC50 [14]: > 10 µM; IC50 [14]: > 10 µM
CNC(C)C(=O)c1c[nH]c2ccc(F)cc12 (stereo not drawn) [BK-5F-NM-AMT, 1-(5-Fluoro-1H-indol-3-yl)-2-(methylamino) propan-1-one hydrochloride]	> 10 µM	> 10 µM	> 10 µM	> 10 µM	> 10 µM	> 10 µM	> 10 µM	> 10 µM	> 10 µM	> 10 µM	> 10 µM	> 10 µM	> 10 µM	> 10 µM	> 10 µM	> 10 µM	> 10 µM	> 10 µM	0.587 µM	> 10 µM	IC50 [11]: > 10 µM; EC50 [12]: > 10 µM; IC50 [12]: > 10 µM; EC50 [13]: > 10 µM; IC50 [13]: > 10 µM; EC50 [14]: > 10 µM; IC50 [14]: > 10 µM
CNC(C)C(=O)c1c[nH]c2ccc(Cl)cc12 (stereo not drawn) [BK-5Cl-NM-AMT, 1-(5-chloro-1H-indol-3-yl)-2-(methylamino) propan-1-one hydrochloride]	> 10 µM	> 10 µM	> 10 µM	> 10 µM	> 10 µM	> 10 µM	> 10 µM	> 10 µM	> 10 µM	> 10 µM	> 10 µM	> 10 µM	> 10 µM	> 10 µM	> 10 µM	> 10 µM	> 10 µM	> 10 µM	0.0921 µM	> 10 µM	IC50 [11]: > 10 µM; EC50 [12]: > 10 µM; IC50 [12]: > 10 µM; EC50 [13]: > 10 µM; IC50 [13]: > 10 µM; EC50 [14]: > 10 µM; IC50 [14]: > 10 µM
